Common to all, as to type: functional
Assay [1] has as its target T1, Oxoeicosanoid receptor 1 (Homo sapiens, UniProt Q8TDS5). In words: Agonist activity at OXE receptor in human neutrophils assessed as 5-oxo-ETE-induced Ca2+ mobilization incubated for 2 mins prior to 5-oxo-ETE addition measured after 1 min by spectrofluorimetric analysis. (In general: Calcium assays in cells follow changes in intracellular calcium, usually with a dye or a luminescent sensor.)

Assay [2] concerns the target T1, Oxoeicosanoid receptor 1. As to the kind of experiment: Antagonist activity at OXE receptor in human neutrophils assessed as 5-oxo-ETE-induced Ca2+ mobilization incubated for 2 mins prior to 5-oxo-ETE addition measured at 1 uM after 1 min by spectrofluorimetric analysis.
Assay [3] concerns the target T1, Oxoeicosanoid receptor 1. In words: Antagonist activity at OXE receptor in human neutrophils assessed as LTB4-induced Ca2+ mobilization incubated for 2 mins prior to 5-oxo-ETE addition measured after 1 min by spectrofluorimetric analysis.
Assay [4] has as its target T1, Oxoeicosanoid receptor 1. In words: Antagonist activity at OXE receptor in human neutrophils assessed as 5-oxo-ETE-induced Ca2+ mobilization incubated for 2 mins prior to 5-oxo-ETE addition measured after 1 min by spectrofluorimetric analysis.
For assay [5], the target named is T1, Oxoeicosanoid receptor 1. As to the kind of experiment: Antagonist activity at OXE receptor in human neutrophils assessed as 5-oxo-ETE-induced Ca2+ mobilization incubated for 2 mins prior to 5-oxo-ETE addition measured at 30 uM after 1 min by spectrofluorimetric analysis.
Assay [6] addresses T1, Oxoeicosanoid receptor 1. As to the kind of experiment: Antagonist activity at OXE receptor in human neutrophils assessed as induction of Ca2+ mobilization at 30 uM after 2 mins by spectrofluorimetric analysis.

Active and inactive are the calls of the source. No cut-off for these calls is given here.

T1 sequence (Q8TDS5 whole entry): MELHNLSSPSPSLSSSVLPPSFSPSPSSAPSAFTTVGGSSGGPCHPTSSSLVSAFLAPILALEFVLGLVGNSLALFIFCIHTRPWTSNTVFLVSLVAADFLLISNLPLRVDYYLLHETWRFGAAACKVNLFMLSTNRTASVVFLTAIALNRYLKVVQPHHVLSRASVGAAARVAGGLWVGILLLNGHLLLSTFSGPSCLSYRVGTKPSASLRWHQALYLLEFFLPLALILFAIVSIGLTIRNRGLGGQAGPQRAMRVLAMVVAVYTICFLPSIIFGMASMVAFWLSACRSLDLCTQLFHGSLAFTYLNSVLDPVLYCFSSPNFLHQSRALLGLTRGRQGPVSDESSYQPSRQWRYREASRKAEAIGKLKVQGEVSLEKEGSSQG

On to `O=C(O)CCCC(=O)/C=C/c1cccc2ccccc12`, for which the outcome at Oxoeicosanoid receptor 1 [1] was inactive.
On to `CCCCCCc1cc2ccccc2n1C(=O)CCCC(=O)O`, for which the result on Oxoeicosanoid receptor 1 [2] was Active. Besides, on Oxoeicosanoid receptor 1 [3], the result was inactive. The concentration for half-maximal inhibition (IC50) on Oxoeicosanoid receptor 1 [4] turned out to be 1.55 µM.
As to `O=C(O)CCCC(=O)n1ccc2ccccc21`, the outcome at Oxoeicosanoid receptor 1 [5], on Oxoeicosanoid receptor 1 [6] and at Oxoeicosanoid receptor 1 [1] was inactive. Also, at Oxoeicosanoid receptor 1 [4], the IC50 is more than 30 µM.
Consider `O=C(O)CCCC(=O)/C=C/c1ccccc1`, for which the outcome at Oxoeicosanoid receptor 1 [1] was inactive.
Turning to `CCCCCCc1cccc2ccn(C(=O)CCCC(=O)O)c12`, the IC50 at Oxoeicosanoid receptor 1 [4] was determined as 11.8 µM.
Still for that read-out and setting: the same measure for `CCCCCCc1ccc2c(ccn2C(=O)CCCC(=O)O)c1`: 17.7 µM.
As for `O=C(O)CCCc1cc2ccccc2o1`, the result at Oxoeicosanoid receptor 1 [1] was inactive.
For the compound `CCCCCCc1cn(C(=O)CCCC(=O)O)c2ccccc12`, the half-inhibitory concentration (IC50) on Oxoeicosanoid receptor 1 [4] was 20.7 µM.
Take `CCCCCCc1ccc2ccn(C(=O)CCCC(=O)O)c2c1`: the 50% inhibitory concentration (IC50) at Oxoeicosanoid receptor 1 [4] is 18 µM.

As a reminder, the IC50 is the concentration that gives 50% inhibition.

The record behind these values is ChEMBL document CHEMBL2331351, “5-Oxo-ETE receptor antagonists” (J Med Chem, 2013).
